Assay results as given in patent US20160158184A1, “SELF-EMULSIFYING COMPOSITION OF OMEGA3 FATTY ACID” (priority 2013, published 2016).

Experiment: Pharmacokinetics in beagles (Test Example 5)
Format: in vivo
Parameters: unit not given beside the values
Settings: male beagles fasted 18 hours or more, oral, 600 mg of EPA-E, plasma EPA, corrected for pre-dose value
Procedure: The composition or the capsule prepared was orally administered to 6 male beagles (at the age of 2 to 6 years with the body weight of 8 to 13 kg, 3 Marshall beagles and 3 Nosan beagles) under fasting conditions, and blood EPA concentration was evaluated. The test animals were fasted 18 hours or more before the administration, and each animal was administered with the composition at an amount corresponding to 600 mg of the EPA-E. Blood was collected before the administration, and 0.5, 1, 1.5, 2, 3, 4, 6, 8, and 24 hours after the administration, and plasma was separated to measure plasma EPA concentration by LC/MS/MS (a method of separating a sample by liquid chromatography and separating the resultant components by mass spectrometry for measurement). The control group was administered with the EPA-E stock solution encapsulated in a capsule. […] In the calculation of each parameter, the value was corrected by subtracting the blood EPA concentration before the administration of the composition.

AUC0-2 (0 to 2 hours): 11.3 | AUC0-24 (0 to 24 hours): 76.6
Structure (SMILES): CC/C=C\C/C=C\C/C=C\C/C=C\C/C=C\CCCC(=O)OCC [Comp. Ex. 5, Ethyl eicosapentaenoate ester]
